Data on four compounds can be found in US20240115569A1, “METHODS FOR BLOCKING HER2 SIGNALING FOR TREATING PULMONARY FIBROSIS” (CEDARS-SINAI MEDICAL CENTER, priority 2021, published 2024).

The subject of data set [1] is human lung fibroblasts. The data set can be described thus: Fibroblast migration assay (BioCoat control insert). In kind it is cell-based. The note with it: 24 hours, PDGF-BB chemoattractant. The procedure:
(§1) Fibroblast migration and invasion assays were performed as previously described (Geng et al., 2019; L1 et al., 2011). In brief, fibroblasts were loaded into the top chamber of a Corning BioCoat Control cell culture insert containing a polycarbonate membrane with 8.0 µm pores (for migration) or a BioCoat Matrigel Invasion Chamber (BD Sciences; for invasion). All other settings were the same for the cell migration assay as for the cell invasion assay.
(§2) PDGF-BB (10 ng/ml, Peprotech) was used as a chemoattractant in the bottom chamber. After 24 hours culture at 37° C. with 5% CO2, invasive cells that had passed through the matrigel layer and clung to the bottom of the insert membrane were determined as invasive fibroblasts. Cells remaining in the upper chamber were defined as non-invasive fibroblasts. For quantification of the migration and invasion indices, the membrane filters containing cells were fixed and stained with the Protocol Hema 3 stain set (Thermo Fisher Scientific) and counted in 5 randomly chosen fields per filter from triplicate filters per sample at ×40 magnification. […] The cell migration or the cell invasion index was calculated as the number of cells attached to the bottom of control or Matrigel-coated membranes after 24 hours, normalized to respective control lung fibroblasts.

For data set [2], the system named is human lung fibroblasts. The data set can be described thus: Fibroblast invasion assay (BioCoat Matrigel Invasion Chamber). In kind it is cell-based. To be noted: 24 hours, PDGF-BB chemoattractant. On the procedure:
as §1, §2

The next data set relates to fibroblasts. Put plainly: Calcein AM cell viability assay. The class given is cell-based, human. To be noted: Lapatinib treated cells for 24 hours. The procedure:
Cell growth rate of si-CTL and si-FENDRR fibroblasts were measured by IncuCyte ZOOM Live Cell Analysis System (Essen BioScience). The viability of lapatinib-treated fibroblasts or control fibroblasts was examined by Calcein AM Cell Viability Assay Kit (Trevigen).

In data set [3] the test system is NSG mice injected with SEMA7A high IPF fibroblasts. The data set can be described thus: Humanized SCID mouse model of IPF. In kind it is in vivo. The note with it: assessed on day 63. The procedure: Humanized SCID mouse model of IPF was generated as previously reported (Trujillo et al., 2010). Female NOD-scid-IL2Rγc−/− (NSG) mice (6 to 8 weeks old) were purchased from the Jackson Laboratory. The NSG mice received single-cell preparations of SEMA7A high and negative IPF lung fibroblasts (0.5×10^6 cells/mouse) via tail vein injection. […] For the anti-ERBB2 antibody studies, mice were injected with IgG1 (InVivoPlus human IgG1 isotype control, Bio X Cell) or anti-HER2 (Pertuzumab, kindly provided by Genentech) twice per week, 100 μg/mouse from day 35 to 63. Lung fibrosis was assessed on day 63 after fibroblast transfer. The left lobe was used for histology and right lobes were used for hydroxyproline assay after right ventricle perfusion to clear the blood in lungs.

Another data set relates to C57BL/6J mice. The data set can be described thus: Bleomycin-induced lung fibrosis. To be noted: 1.25 U/kg bleomycin intratracheal; gavaged every day; 21 days; vs vehicle; trichrome and hydroxyproline. In kind it is in vivo, mouse.
A further data set has as its system SEMA7A. The data set can be described thus: Western blot of SEMA7A in IPF lung fibroblasts. The class given is cell-based, human. The note with it: increasing concentration. In general terms: In western blotting, separated proteins are transferred to a membrane and probed.
The test system of a further data set is FOXF1. The data set can be described thus: Western blot of FOXF1 in IPF lung fibroblasts. The class given is cell-based, human. To be noted: increasing concentration.
For another data set, the system named is SEMA7A, F3, and ITGA6. Put plainly: Flow cytometry of cell surface markers of invasive fibroblasts. The class given is cell-based, human. To be noted: IPF lung fibroblasts after Lapatinib treatment.
The subject of another data set is IPF lung fibroblasts. The data set can be described thus: qRT-PCR of genes specific to invasive or non-invasive fibroblasts. The class given is cell-based, human. To be noted: IPF lung fibroblasts after Lapatinib treatment. On the procedure: Small interfering RNA (siRNA) knockdown assays were performed using Lipofectamin RNAiMAX Transfection Reagent following the manufacturer's protocol (Thermo Fisher Scientific). Commercial si-RNA used were listed: si-FOXF1 (Santa Cruz Biotechnology, sc-60655), si-CREBRF (Santa Cruz Biotechnology, sc-91839), si-TSC22D1 (Thermo Fisher Scientific, 16708), si-MXI1 (Santa Cruz Biotechnology, sc-35835), si-KLF9 (Santa Cruz Biotechnology, sc-37716), si-NFE2L2 (Santa Cruz Biotechnology, sc-37030), si-HMGA2 (Santa Cruz Biotechnology, sc-37994) si-DPF3 (Santa Cruz Biotechnology, sc-92150) and si-LIN00152 (Dharmacon, SMARTpool: Lincode CYTOR siRNA). Si-FENDRR were synthesized by Integrated DNA Technologies (IDT) (Table 1). RNA was isolated using RNeasy Mini kit (QIAGEN) following the manufacturer's protocol. […] Reverse Transcriptase (Progema) was used for cDNA synthesis. Gene expression was measured relative to the endogenous reference gene GAPDH using the comparative ACT method. The primer sequences used were listed (Table 1).

Another data set has as its system IPF. The note with it: IPF patients; cited from earlier work.
Setting [4] is: different doses of Lapatinib or DMSO.

Text for C57BL/6J mice: Control animals received saline alone. The tracheostomy site was sutured, and the animals were allowed to recover. […] Mice were euthanized 21 days after bleomycin treatment, and lung tissues were collected for experiments.
Experimental for SEMA7A, F3, and ITGA6: Briefly, cells were resuspended in Hank's balanced saline solution supplemented with 2% FBS, 10 mM […] , 0.1 mM EDTA, Antibiotic-Antimycotic. […] 4',6-diamidino-2-phenylindole (DA-PI) was used to discriminate dead cells.

Regarding `CS(=O)(=O)CCNCc1ccc(-c2ccc3ncnc(Nc4ccc(OCc5cccc(F)c5)c(Cl)c4)c3c2)o1` [Lapatinib], the fibroblast migration result in the data set with human lung fibroblasts [1] (setting [4]) was “inhibited fibroblast migration and invasion in a dose dependent manner”. For the same compound, the fibroblast invasion result in the data set with human lung fibroblasts [2] (setting [4]) was “inhibited fibroblast migration and invasion in a dose dependent manner”. For the same compound, the fibroblast viability result in the data set on fibroblasts is given as “no effect on fibroblast viability”. Moreover, in [3] (50 mg/kg every other day from day 35 to day 63, vs vehicle, trichrome and hydroxyproline), the lung fibrosis entry is “significantly decreased lung fibrosis”. Further, the bleomycin-induced lung fibrosis entry with C57BL/6J mice is listed as “blunted bleomycin-induced lung fibrosis”. Moreover, in the data set with SEMA7A, the “total protein levels of SEMA7A” value is recorded as “decreased”. Moreover, the “total protein levels of FOXF1” value in the data set on FOXF1 is “increased”. Moreover, the “cell surface expression of SEMA7A, F3, and ITGA6” value in the data set with SEMA7A, F3, and ITGA6 is reported as “decreased protein levels”. The “RNA levels of other representative genes specific to invasive or non-invasive fibroblasts” value in the data set on IPF lung fibroblasts is on record as “reversed to a non-invasive state”.

In the case of `COC(=O)c1ccc2c(c1)NC(=O)/C2=C(\Nc1ccc(N(C)C(=O)CN2CCN(C)CC2)cc1)c1ccccc1` [nintedanib], in the data set with IPF, the “lung function / fibrosis” value is given as “neither of these agents improves lung function or reduces fibrosis” and the “rate of decline in the forced vital capacity” value is on record as “reduce the rate of decline in the forced vital capacity”.

For `Cc1ccc(=O)n(-c2ccccc2)c1` [pirfenidone], in the data set with IPF, the “lung function / fibrosis” value is given as “neither of these agents improves lung function or reduces fibrosis” and the “rate of decline in the forced vital capacity” value is given as “reduce the rate of decline in the forced vital capacity”.

Turning to “Pertuzumab: humanized monoclonal antibody that binds to the extracellular domain II of HER2”, the fibroblast migration entry in the data set on human lung fibroblasts [1] (Pertuzumab or IgG1) is “significantly reduced fibroblast migration and invasion”. Also, the fibroblast invasion result with human lung fibroblasts [2] (Pertuzumab or IgG1) is “significantly reduced fibroblast migration and invasion”. In addition, the lung fibrosis result in data set [3] (100 μg/mouse twice per week from day 35 to 63, vs IgG1) is listed as “significantly decreased lung fibrosis”.
